# In patent US20090012177A1, “Treatment of psychiatric disorders using entacapone, tolcapone and other COMT inhibitor or MB-COMT inhibitor drugs” (priority 2006, published 2009):
# Legend:
# [1] = tested on: prefrontal cortex functions; conditions: subjects with the Val/Val genotype; cited from earlier work
# [2] = cited from earlier work
# primates = conditions: cited from earlier work
# rats = conditions: cited from earlier work
# [3] = in vivo; cited from earlier work
# [4] = administered in conjunction; cited from earlier work
# [5] = tested on: patients with drug dependency; assay: Illustrative case reports: six cases of drug dependency; format: in vivo, human
# [6] = tested on: patients with SCZ, BD, Major depression and drug dependency; assay: Clinical studies of entacapone in more than 100 patients, evaluated with the CGI scale; format: in vivo, human
# Method: This new therapeutic application was determined in patients (Men/women) in single-drug and combination drug therapy. 100 patients were treated at a dose range of 3-10-mg/kg day (50 mg/day-800 mg/day) orally for period of 12 weeks and continued for as long as patients consented averaged 12 months or more.
# The drug efficacy was evaluated using the CGI (Clinical Global Impression) scale. This is a simple tool that is clinically understandable, has proven to be a robust measure of efficacy in drug treatment trial and is highly sensitive to change of clinical status.
# patient with BD = assay: Illustrative case report: a case of BD; format: in vivo, human; conditions: 400 mg/day, follow up
# Description: Married person, a hedge fund investment manager with history of BD who has had temporary partial response to antidepressants but mainly resulting in exacerbation symptoms of anxiety, relapse to a depression or cycling to mania. They were intolerant of atypical antipsychotics with potential antidepressant effect (Ziprasidone, Aripiprazole and Quetiapine) either as mono therapy or combined with Lithium or Lamotrigine. […] They reported oil Lithium their “up and down swings were better” but complained their depression was not resolved and they were not happy. They also complained of lack of motivation, trouble with concentration, getting easily overwhelmed with their job, inability to feel joy, overall lack of interest in everything, not knowing what to do with themself, gave up on all hobbies, feeling being all consumed, excessive day time napping, feeling bored especially when their time would be unstructured on week end, loss of their spontaneity and resorting to procrastination, They went to an exotic vacation in Caribbean with their spouse with the hope to bounce back. But as they reported they were not able to enjoy their vacation, complained feeling “being stuck at the low bottom and strongly believed they would never come out of it”. They had started to do Marijuana with the hope to improve their mood. They were preoccupied with getting a gun and shoots themself. […]
smiles,measurement,setting,value
CC(N)Cc1ccccc1 (stereo not shown) [amphetamine],efficiency of prefrontal cortex functions in working memory tasks,[1],enhanced
Cc1ccc(C(=O)c2cc(O)c(O)c([N+](=O)[O-])c2)cc1 [Tolcapone],tolerability,"[2]; human, in vivo",well tolerated drug with no major side effects
same,hepatic failure,[2]; reported in Europe in the early years of use,three cases of hepatic failure
same,extradimensional set shifting performance mediated by prefrontal cortex catecholamines,primates,significantly improved
same,extradimensional set shifting performance mediated by prefrontal cortex catecholamines,rats,significantly improved
CCN(CC)C(=O)/C(C#N)=C/c1cc(O)c(O)c([N+](=O)[O-])c1 [entacapone],blood brain barrier penetration relative to tolcapone,[3],half that of about tolcapone
same,bioavailability of dopaminergic agents such as L-DOPA,[4],increases the bioavailability
same,"duration of abstinence, Case #2","[5]; cocaine and alcohol dependant, relapsed when entacapone stopped",10 months
same,"duration of sobriety, Case #3",[5]; increased to 400 then 600 mg/day,14 months
same,common side effects,"[2]; human, in vivo","gastrointestinal problems, including diarrhea, nausea and abdominal pains"
same,safety profile relative to tolcapone,"[2]; human, in vivo",much better safety profile
same,most frequent undesirable effects,"[2]; related to increased effects of L-DOPA, beginning of treatment",involuntary movements (dyskinesias)
same,"serious events (physical, neurological or psychiatric adverse effects)","[6]; during the study, 50-800 mg per day",no indication of serious events
same,cases with improved negative and depressive symptoms (CGI scale),"[6]; entacapone (Comtan) 50-800 mg per day, more than 100 patients",more than 60%
same,effect of discontinuation of treatment on clinical condition,[6]; in comparison to the pre-treatment status,did not cause any worsening of the clinical condition
same,duration of maintained effect in BD,patient with BD,12 months
